# Article PMC10796436, “Peptidyl nitroalkene inhibitors of main protease rationalized by computational and crystallographic investigations as antivirals against SARS-CoV-2” (Communications Chemistry, 2024)
# Where “and” joins values, the source holds several entries; their conditions need not be identical. Equal entries are not always repeated. Where two headings read alike, the source gives them in different places.
# Assays:
# [1] = calibration compound; cited from earlier work
# M^pro [2] = target: T1, M^pro (Severe acute respiratory syndrome coronavirus 2, UniProt P0DTD1); assay: biochemical; format: binding
# SARS-CoV-2 M^pro [3] = target: T2, SARS-CoV-2 M^pro (Severe acute respiratory syndrome coronavirus 2, UniProt P0DTD1); assay: biochemical; conditions: M^pro from pMal-M^pro vector
# SARS-CoV-2 M^pro [4] = target: T2, SARS-CoV-2 M^pro; assay: Mpro FRET inhibition, continuous fluorometric assay (Fluorolog-3), enzyme from pET21-M^pro vector; format: biochemical; conditions: read-out: Ki (μM)^b
# rhodesain (RhD) = target: T3, rhodesain (RhD) (Trypanosoma brucei rhodesiense, UniProt Q95PM0); assay: Rhodesain inhibition, fluorometric assay; format: biochemical; conditions: read-out: Ki RhD
# T3 construct: made in house
# cathepsin B (CatB) = target: T4, cathepsin B (CatB) (Homo sapiens, UniProt P07858); assay: Cathepsin B inhibition, fluorometric assay; format: biochemical; conditions: read-out: Ki CatB
# T4 construct: purchased Calbiochem (Merck Millipore)
# in vitro = conditions: human
# [5] = target: Zika Virus NS2B/NS3 (bZiPro) (Zika virus, UniProt A0A024B7W1); assay: Zika virus protease inhibition, fluorometric assay; format: biochemical; conditions: 20 μM
# SARS-CoV-2 = assay: microbe, parasite or virus in culture; format: cell-based; conditions: for EC50: Huh-7-ACE2, 24h p.t., MOI=0.1; for virus titer Mean (%): mean of Exp.1-3; for virus titer (pfu/ml) / virus titer (%) of conc 0: single experiments
# cathepsin L (CatL) = target: T5, cathepsin L (CatL) (Homo sapiens, UniProt P07711); assay: Cathepsin L inhibition, fluorometric assay; format: biochemical; conditions: read-out: Ki CatL
# T5 construct: purchased Calbiochem (Merck Millipore)
# cruzain (CRZ) = cruzain (CRZ) (Trypanosoma cruzi, UniProt P25779); assay: Cruzain inhibition, fluorometric assay; format: biochemical; conditions: read-out: Ki CRZ
# [6] = target: human matriptase (MT-SP1) (Homo sapiens, UniProt Q9Y5Y6); assay: Matriptase inhibition, fluorometric assay; format: biochemical; conditions: 20 μM
# M^pro [7] = target: T1, M^pro; assay: Binding to M^pro by ultracentrifugation (sedimentation method)
# M^pro [8] = target: T1, M^pro; format: biochemical; conditions: for Fluorescence reading (progress curve): triplicate wells
# Method: Buffer: 20 mM Tris, 0.1 mM EDTA, 1 mM DTT, 200 mM NaCl pH = 7.5. For the dilution assay Nirmatrelvir[21] was used as a reversible control and LM188[54] as an irreversible control (Fig. 10).
# The incubation was done at RT for 30 min in assay buffer. DMSO was used as a control. After incubation the Enzyme/Inhibitor (or DMSO) mixtures were diluted 100-fold in assay buffer.
# The preincubation was done in assay buffer (20 mM Tris, 0.1 mM EDTA, 1 mM DTT, 200 mM NaCl, pH = 7.5), at RT for 30 min. After incubation the mixtures were diluted […]
# proteolytic activity of the enzyme was measured as described for the enzymatic assays using the […]
# activity was measured over 1 h.
# Inhibition assay58. Trypsin: Enzyme: bovine trypsin purchased from Sigma-Aldrich (St. Louis, […]
# Substrate: Cbz-FR-AMC purchased from Bachem (Bubendorf, Switzerland), [Substrate]: 40 µM […]
# The activity against bovine trypsin was tested at 20 µM inhibitor concentration. […]
# Sequence of Zika Virus NS2B/NS3 (bZiPro) (A0A024B7W1 1425-1464): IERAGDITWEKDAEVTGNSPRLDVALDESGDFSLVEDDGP
# Sequence of Zika Virus NS2B/NS3 (bZiPro) (A0A024B7W1 1503-1680): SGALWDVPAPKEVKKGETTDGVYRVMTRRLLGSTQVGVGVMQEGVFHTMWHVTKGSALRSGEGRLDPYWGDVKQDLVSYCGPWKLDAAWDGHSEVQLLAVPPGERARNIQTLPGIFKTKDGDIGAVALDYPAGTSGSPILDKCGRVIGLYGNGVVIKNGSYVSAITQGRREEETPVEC
# Sequence of cruzain (CRZ) (P25779 123-467): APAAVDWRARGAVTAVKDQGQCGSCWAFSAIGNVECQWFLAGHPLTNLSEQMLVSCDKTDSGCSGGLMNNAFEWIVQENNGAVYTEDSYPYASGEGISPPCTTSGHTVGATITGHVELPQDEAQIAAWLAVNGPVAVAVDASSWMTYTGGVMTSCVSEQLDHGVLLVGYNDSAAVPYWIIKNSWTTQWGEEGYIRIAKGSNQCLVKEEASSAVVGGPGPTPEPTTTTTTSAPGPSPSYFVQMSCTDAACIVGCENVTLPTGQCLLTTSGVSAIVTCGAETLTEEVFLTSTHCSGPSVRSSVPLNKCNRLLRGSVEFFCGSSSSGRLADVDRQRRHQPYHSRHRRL
# T5 sequence (P07711 114-288 limits assumed): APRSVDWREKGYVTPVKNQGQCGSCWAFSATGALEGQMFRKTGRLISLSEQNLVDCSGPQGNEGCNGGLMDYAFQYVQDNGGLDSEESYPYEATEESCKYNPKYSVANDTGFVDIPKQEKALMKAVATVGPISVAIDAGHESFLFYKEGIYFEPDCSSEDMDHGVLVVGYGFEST
# T5 sequence (P07711 292-333 limits assumed): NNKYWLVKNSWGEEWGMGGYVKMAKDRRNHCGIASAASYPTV
# T3 sequence (Q95PM0 entry or part of it): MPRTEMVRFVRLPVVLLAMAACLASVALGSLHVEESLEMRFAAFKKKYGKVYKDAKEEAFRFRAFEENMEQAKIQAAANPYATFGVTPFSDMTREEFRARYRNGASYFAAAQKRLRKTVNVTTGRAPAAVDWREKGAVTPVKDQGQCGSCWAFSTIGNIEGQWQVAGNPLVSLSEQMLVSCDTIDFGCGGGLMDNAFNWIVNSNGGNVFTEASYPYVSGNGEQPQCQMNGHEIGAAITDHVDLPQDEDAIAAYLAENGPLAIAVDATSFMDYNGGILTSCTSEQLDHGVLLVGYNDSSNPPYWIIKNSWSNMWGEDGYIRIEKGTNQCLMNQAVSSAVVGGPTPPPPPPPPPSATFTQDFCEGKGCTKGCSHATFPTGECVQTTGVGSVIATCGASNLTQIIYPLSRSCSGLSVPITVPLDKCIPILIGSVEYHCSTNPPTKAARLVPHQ
# Sequence of human matriptase (MT-SP1) (Q9Y5Y6 615-855 limits assumed, other chains not shown): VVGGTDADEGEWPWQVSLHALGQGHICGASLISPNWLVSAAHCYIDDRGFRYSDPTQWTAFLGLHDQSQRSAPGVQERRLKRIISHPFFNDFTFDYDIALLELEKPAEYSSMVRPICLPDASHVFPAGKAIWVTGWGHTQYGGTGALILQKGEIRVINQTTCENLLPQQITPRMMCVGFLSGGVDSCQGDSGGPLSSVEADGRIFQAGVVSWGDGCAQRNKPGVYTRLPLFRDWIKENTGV
smiles,measurement,setting,value
CC(=O)c1ccccc1 [Acetophenone],Chromatographic Hydrophobicity Index (publication),[1],64.90
c1ccc2[nH]cnc2c1 [Benzimidazole],Chromatographic Hydrophobicity Index (publication),[1],30.71
CCCC(=O)c1ccccc1 [Butyrophenone],Chromatographic Hydrophobicity Index (publication),[1],88.49
O=C(N[C@@H](Cc1ccccc1)C(=O)N[C@H](/C=C/[N+](=O)[O-])CCc1ccccc1)OCc1ccccc1 [FGA86],change of Tm of M^pro,M^pro [2]; 25 µM,0.9 ± 0.4 °C
same,ΔTm at 25 µM,"M^pro [2]; 25 µM, read-out: DTm (°C)",0.9 °C
same,change of Tm of M^pro,M^pro [2]; 100 μM,−1.7 ± 0.4 °C
same,inhibition at 20 µM,SARS-CoV-2 M^pro [3],17%
same,Ki,SARS-CoV-2 M^pro [4],2.67 ± 0.29 µM
CC(C)CC(NC(=O)C=Cc1ccccc1)C(=O)NC(C=C[N+](=O)[O-])CC1CCNC1=O (centres unmarked) [FGA145],change of Tm of M^pro,M^pro [2]; 25 µM,−1.1 ± 0.2 °C
same,ΔTm at 25 µM,"M^pro [2]; 25 µM, read-out: DTm (°C)",-1.1 °C
same,change of Tm of M^pro,M^pro [2]; 100 μM,−3.7 ± 0.1 °C
same,Ki,SARS-CoV-2 M^pro [3],3.71 ± 0.38 µM
same,Ki,SARS-CoV-2 M^pro [4],9.82 ± 1.5 µM
same,Ki,rhodesain (RhD),0.00163 ± 0.00022 µM
same,Ki,cathepsin B (CatB),0.206 ± 0.041 µM
same,CC50,in vitro,> 100 µM
same,bZiPro,[5],n.i. (no inhibition (<10%) was observed at a concentration of 20 μM)
same,EC50,SARS-CoV-2,11.7 µM
same,EC50,"SARS-CoV-2; Severe acute respiratory syndrome coronavirus 2, 24 h",11.7 µM
same,virus titer Mean (%),SARS-CoV-2; conc 0.1,99%
same,virus titer (pfu/ml),SARS-CoV-2; conc 0.1,1400000 pfu/ml and 1000000 pfu/ml and 1070000 pfu/ml
same,virus titer Mean (%),SARS-CoV-2; conc 0.5,119%
same,virus titer (%) of conc 0,SARS-CoV-2; conc 0.5,160% and 90% and 107%
same,virus titer (pfu/ml),SARS-CoV-2; conc 0.5,1600000 pfu/ml and 1800000 pfu/ml and 1070000 pfu/ml
same,virus titer Mean (%),SARS-CoV-2; conc 1,120%
same,virus titer (pfu/ml),SARS-CoV-2; conc 1,1400000 pfu/ml and 1500000 pfu/ml
same,virus titer Mean (%),SARS-CoV-2; conc 5,108.333%
same,virus titer (%) of conc 0,SARS-CoV-2; conc 5,120% and 75% and 130%
same,virus titer (pfu/ml),SARS-CoV-2; conc 5,1200000 pfu/ml and 1500000 pfu/ml and 1300000 pfu/ml
same,virus titer Mean (%),SARS-CoV-2; conc 10,25.6667%
same,virus titer (pfu/ml),SARS-CoV-2; conc 10,400000 pfu/ml and 200000 pfu/ml and 270000 pfu/ml
same,virus titer Mean (%),SARS-CoV-2; conc 50,0.07467%
same,virus titer (%) of conc 0,SARS-CoV-2; conc 50,0.2% and 0.01% and 0.014%
same,virus titer Mean (%),SARS-CoV-2; conc 100,0.017%
same,virus titer (%) of conc 0,SARS-CoV-2; conc 100,0.006% and 0.02% and 0.025%
same,Ki,cathepsin L (CatL),0.053 ± 0.0041 µM
same,Ki,cruzain (CRZ),0.0126 ± 0.0015 µM
same,MT-SP1,[6],n.i. (no inhibition (<10%) was observed at a concentration of 20 μM)
same,"Fraction bound, Absorption",M^pro [7]; ligand concentration 0.5,0.01689
same,"Fraction bound, Absorption",M^pro [7]; ligand concentration 1,0.05068
same,"Fraction bound, Absorption",M^pro [7]; ligand concentration 5,0.2419
same,"Fraction bound, Absorption",M^pro [7]; ligand concentration 10,0.373
same,"Fraction bound, Absorption",M^pro [7]; ligand concentration 25,0.7297
same,"Fraction bound, Absorption",M^pro [7]; ligand concentration 50,0.9595
same,"Fraction bound, Absorption",M^pro [7]; ligand concentration 100,1.009
same,Kd,"M^pro [7]; ultracentrifugation, 25 °C",11.8 ± 1.05 µM
CC(C)C[C@H](NC(=O)[C@@H](NC(=O)[C@H](C)NC(=O)OC(C)(C)C)C(C)C)C(=O)N[C@H](/C=C/[N+](=O)[O-])CCc1ccccc1 [FGA159],ΔTm at 5 µM,"M^pro [2]; 5 µM, read-out: DTm (°C)",2.6 °C
same,ΔTm at 25 µM,"M^pro [2]; 25 µM, read-out: DTm (°C)",2.5 °C
same,change of Tm of M^pro,M^pro [2]; concentration range between 5 and 100 μM,2.5 ± 0.2 °C
same,Ki,SARS-CoV-2 M^pro [3],21.8 ± 1.5 µM
same,Ki,SARS-CoV-2 M^pro [4],1.19 ± 0.18 µM
CC(C)CC(NC(=O)C=Cc1ccccc1)C(=O)NC(C=C[N+](=O)[O-])CCc1ccccc1 (centres unmarked) [FGA177],ΔTm at 25 µM,"M^pro [2]; 25 µM, read-out: DTm (°C)",0.1 °C
same,change of Tm of M^pro,M^pro [2]; range of 25 to 100 μM,0.1 ± 0.2 °C
same,inhibition at 20 µM,SARS-CoV-2 M^pro [3],25%
same,Ki,SARS-CoV-2 M^pro [4],8.59 ± 1.6 µM
"COc1cccc2[nH]c(C(=O)N[C@@H](CC(C)C)C(=O)N[C@H](/C=C/S(=O)(=O)c3ccccc3)C[C@@H]3CCNC3=O)cc12 [LM188, reference compound]",Fluorescence reading (progress curve),M^pro [8]; Time 180.071 s,253 and 247
same,Fluorescence reading (progress curve),M^pro [8]; Time 210.081 s,256 and 250
same,Fluorescence reading (progress curve),M^pro [8]; Time 240.095 s,254 and 247
same,Fluorescence reading (progress curve),M^pro [8]; Time 270.113 s,256 and 248
same,Fluorescence reading (progress curve),M^pro [8]; Time 300.118 s,253 and 248 and 250
same,Fluorescence reading (progress curve),M^pro [8]; Time 330.126 s,256 and 248 and 247
same,Fluorescence reading (progress curve),M^pro [8]; Time 360.134 s,249 and 246 and 248
same,Fluorescence reading (progress curve),M^pro [8]; Time 390.141 s,253 and 250 and 249
same,Fluorescence reading (progress curve),M^pro [8]; Time 420.149 s,251 and 247 and 248
same,Fluorescence reading (progress curve),M^pro [8]; Time 450.157 s,255 and 249 and 250
same,Fluorescence reading (progress curve),M^pro [8]; Time 480.18 s,255 and 244
same,Fluorescence reading (progress curve),M^pro [8]; Time 2881.2 s,249 and 222 and 233
same,Fluorescence reading (progress curve),M^pro [8]; Time 2911.21 s,247 and 222 and 232
same,Fluorescence reading (progress curve),M^pro [8]; Time 2941.22 s,252 and 222 and 230
same,Fluorescence reading (progress curve),M^pro [8]; Time 2971.24 s,250 and 221 and 231
same,Fluorescence reading (progress curve),M^pro [8]; Time 3001.25 s,248 and 221 and 233
same,Fluorescence reading (progress curve),M^pro [8]; Time 3031.26 s,247 and 219 and 231
same,Fluorescence reading (progress curve),M^pro [8]; Time 3061.27 s,249 and 220 and 232
same,Fluorescence reading (progress curve),M^pro [8]; Time 3091.28 s,249 and 219 and 230
same,Fluorescence reading (progress curve),M^pro [8]; Time 3121.29 s,250 and 222 and 232
same,Fluorescence reading (progress curve),M^pro [8]; Time 3151.3 s,246 and 219 and 232
same,Fluorescence reading (progress curve),M^pro [8]; Time 3181.31 s,246 and 220 and 232
same,Fluorescence reading (progress curve),M^pro [8]; Time 3211.32 s,246 and 221 and 231
same,Fluorescence reading (progress curve),M^pro [8]; Time 3241.33 s,243 and 219 and 230
same,Fluorescence reading (progress curve),M^pro [8]; Time 3271.34 s,248 and 221 and 229
same,Fluorescence reading (progress curve),M^pro [8]; Time 3301.35 s,245 and 216 and 230
same,Fluorescence reading (progress curve),M^pro [8]; Time 3331.36 s,246 and 218 and 230
same,Fluorescence reading (progress curve),M^pro [8]; Time 3361.37 s,243 and 219 and 232
same,Fluorescence reading (progress curve),M^pro [8]; Time 3391.39 s,244 and 216 and 230
same,Fluorescence reading (progress curve),M^pro [8]; Time 3421.39 s,241 and 217 and 230
same,Fluorescence reading (progress curve),M^pro [8]; Time 3451.41 s,245 and 215 and 227
same,Fluorescence reading (progress curve),M^pro [8]; Time 3481.42 s,249 and 217 and 230
same,Fluorescence reading (progress curve),M^pro [8]; Time 3511.43 s,242 and 218 and 229
same,Fluorescence reading (progress curve),M^pro [8]; Time 3541.44 s,244 and 216 and 229
same,Fluorescence reading (progress curve),M^pro [8]; Time 3571.45 s,243 and 214 and 228
same,recovery of M^pro activity after 100-fold dilution,M^pro [8]; preincubation 30 min,no visible recovery of activity
c1ccc(-c2nnn[nH]2)cc1 [Phenyltetrazole],Chromatographic Hydrophobicity Index (publication),[1],20.18
CCC(=O)c1ccccc1 [Propiophenone],Chromatographic Hydrophobicity Index (publication),[1],78.41
Cn1c(=O)c2[nH]cnc2n(C)c1=O [Theophylline],Chromatographic Hydrophobicity Index (publication),[1],15.76
CCCCC(=O)c1ccccc1 [Valerophenone],Chromatographic Hydrophobicity Index (publication),[1],97.67
